The assay concerns the target T1, CCR2 receptor (Homo sapiens, UniProt P41597).
T1 construct: expressed in transfected cells
The assay is described as follows: Calcium activity assay on FLIPR Tetra in HEK-Gqi5 cells stably expressing CCR2. Type of assay: cell-based. The method, then:
HEK-Gqi5 cells stably expressing CCR2 were cultured in DMEM high glucose, 10% FBS, 1% PSA, 400 μg/ml geneticin and 50 μg/ml hygromycin. Appropriate positive control chemokines (MCP-1, MIP1A or RANTES) was used as the positive control agonist for screening compound-induced calcium activity assayed on the FLIPR^Tetra. The drug plates were prepared in 384-well microplates using the EP3 and the MultiPROBE robotic liquid handling systems. Compounds were synthesized and tested for CCR2 activity.
T1 sequence (P41597 whole entry): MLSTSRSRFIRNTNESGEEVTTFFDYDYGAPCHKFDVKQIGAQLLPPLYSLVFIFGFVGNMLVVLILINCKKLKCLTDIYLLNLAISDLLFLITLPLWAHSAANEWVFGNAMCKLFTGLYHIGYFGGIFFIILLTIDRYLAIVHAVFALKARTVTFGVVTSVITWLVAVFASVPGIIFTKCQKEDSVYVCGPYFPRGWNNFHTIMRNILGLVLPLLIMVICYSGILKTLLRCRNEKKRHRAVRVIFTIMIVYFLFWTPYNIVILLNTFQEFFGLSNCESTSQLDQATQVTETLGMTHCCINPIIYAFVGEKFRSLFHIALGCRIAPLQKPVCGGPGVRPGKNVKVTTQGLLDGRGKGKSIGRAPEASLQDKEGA
For orientation: IC50 means the midpoint of a concentration-inhibition curve. For the molecule `CC(=O)Nc1cccc(CS(=O)(=O)c2ccc(Cl)cc2NS(=O)(=O)c2cc3ccccc3o2)c1` [N-{3-[({2-[(1-benzofuran-2-ylsulfonyl)amino]-4-chlorophenyl}sulfonyl)methyl]phenyl}acetamide], the “CCR2 % ANTAGONISM” value worked out at 100% and the IC50 turned out to be 0.854 µM.
For `COC(=O)c1ccccc1CSc1ccc(Cl)cc1NS(=O)(=O)c1ccc(Cl)c(C(F)(F)F)c1` [methyl 2-({[4-chloro-2-({[4-chloro-3-(trifluoromethyl)phenyl]sulfonyl}amino)phenyl]sulfanyl}methyl)benzoate] the same measures were 88% and 2.38 µM.
In the case of `COC(=O)c1ccccc1C[S+]([O-])c1ccc(Cl)cc1NS(=O)(=O)c1ccc(Cl)c(C(F)(F)F)c1` (stereo not shown) [methyl 2-({[4-chloro-2-({[4-chloro-3-(trifluoromethyl)phenyl]sulfonyl}amino)phenyl]sulfinyl}methyl)benzoate], the “CCR2 % ANTAGONISM” value came out at 101% and the IC50 was found to be 0.274 µM.
For `COC(=O)c1ccccc1CS(=O)(=O)c1ccc(Cl)cc1NS(=O)(=O)c1ccc(Cl)c(C(F)(F)F)c1` [methyl 2-({[4-chloro-2-({[4-chloro-3-(trifluoromethyl)phenyl]sulfonyl}amino)phenyl]sulfonyl}methyl)benzoate] the same measures were 82% and 0.515 µM.
The matching figures for `COC(=O)c1ccccc1CSc1ccc(F)cc1NS(=O)(=O)c1cc2ccccc2o1` [methyl 2-[({2-[(1-benzofuran-2-ylsulfonyl)amino]-4-fluorophenyl}sulfanyl)methyl]benzoate]: 93% and 0.272 µM.
For `COC(=O)c1ccccc1C[S+]([O-])c1ccc(F)cc1NS(=O)(=O)c1cc2ccccc2o1` (stereo not shown) [methyl 2-[({2-[(1-benzofuran-2-ylsulfonyl)amino]-4-fluorophenyl}sulfinyl)methyl]benzoate] the same measures were 91% and 0.14 µM.
On to `COC(=O)c1ccccc1CS(=O)(=O)c1ccc(F)cc1NS(=O)(=O)c1cc2ccccc2o1` [methyl 2-[({2-[(1-benzofuran-2-ylsulfonyl)amino]-4-fluorophenyl}sulfonyl)methyl]benzoate], for which the “CCR2 % ANTAGONISM” value is given as 90% and the IC50 came to 0.041 µM.
In the case of `COC(=O)CCSc1ccc(Cl)cc1NS(=O)(=O)c1cc2ccccc2o1` [methyl 3-({2-[(1-benzofuran-2-ylsulfonyl)amino]-4-chlorophenyl}sulfanyl)propanoate], the “CCR2 % ANTAGONISM” value is listed as 91% and the IC50 amounted to 0.864 µM.
`COC(=O)CC[S+]([O-])c1ccc(Cl)cc1NS(=O)(=O)c1cc2ccccc2o1` (stereo not shown) [methyl 3-({2-[(1-benzofuran-2-ylsulfonyl)amino]-4-chlorophenyl}sulfinyl)propanoate]: the “CCR2 % ANTAGONISM” value was found to be 99% and the IC50 was 0.217 µM.
Regarding `COC(=O)CCS(=O)(=O)c1ccc(Cl)cc1NS(=O)(=O)c1cc2ccccc2o1` [methyl 3-({2-[(1-benzofuran-2-ylsulfonyl)amino]-4-chlorophenyl}sulfonyl)propanoate], the “CCR2 % ANTAGONISM” value stood at 96% and the IC50 is 0.225 µM.
The matching figures for `COC(=O)c1cccc(CSc2ccc(Cl)cc2NS(=O)(=O)c2ccc(Cl)c(C(F)(F)F)c2)c1` [methyl 3-({[4-chloro-2-({[4-chloro-3-(trifluoromethyl)phenyl]sulfonyl}amino)phenyl]sulfanyl}methyl)benzoate]: 57% and 1.36 µM.
The matching figures for `COC(=O)c1cccc(C[S+]([O-])c2ccc(Cl)cc2NS(=O)(=O)c2ccc(Cl)c(C(F)(F)F)c2)c1` (stereo not shown) [methyl 3-({[4-chloro-2-({[4-chloro-3-(trifluoromethyl)phenyl]sulfonyl}amino)phenyl]sulfinyl}methyl)benzoate]: 93% and 3.11 µM.
Regarding `COC(=O)c1cccc(CS(=O)(=O)c2ccc(Cl)cc2NS(=O)(=O)c2ccc(Cl)c(C(F)(F)F)c2)c1` [methyl 3-({[4-chloro-2-({[4-chloro-3-(trifluoromethyl)phenyl]sulfonyl}amino)phenyl]sulfonyl}methyl)benzoate], the “CCR2 % ANTAGONISM” value is recorded as 55% and the IC50 stood at 2.97 µM.
Turning to `COC(=O)CCSc1ccc(Cl)cc1NS(=O)(=O)c1ccc(Cl)cc1F` [methyl 3-[(4-chloro-2-{[(4-chloro-2-fluorophenyl)sulfonyl]amino}phenyl)sulfanyl]propanoate], the “CCR2 % ANTAGONISM” value is listed as 79% and the IC50 is 0.995 µM.
The matching figures for `COC(=O)CC[S+]([O-])c1ccc(Cl)cc1NS(=O)(=O)c1ccc(Cl)cc1F` (stereo not shown) [methyl 3-[(4-chloro-2-{[(4-chloro-2-fluorophenyl)sulfonyl]amino}phenyl)sulfinyl]propanoate]: 93% and 0.098 µM.
As for `COC(=O)CCS(=O)(=O)c1ccc(Cl)cc1NS(=O)(=O)c1ccc(Cl)cc1F` [methyl 3-[(4-chloro-2-{[(4-chloro-2-fluorophenyl)sulfonyl]amino}phenyl)sulfonyl]propanoate], the “CCR2 % ANTAGONISM” value was 82% and the IC50 was found to be 0.212 µM.
Regarding `CC(C)(C)OC(=O)CNC(=O)c1ccc(CSc2ccc(Cl)cc2NS(=O)(=O)c2ccc(Cl)c(C(F)(F)F)c2)cc1` [tert-butyl ({[4-({[4-chloro-2-({[4-chloro-3-(trifluoromethyl)phenyl]sulfonyl}amino)phenyl]sulfanyl}methyl)phenyl]carbonyl}amino)acetate], the “CCR2 % ANTAGONISM” value was 43% and the IC50 was found to be 0.657 µM.
With `CC(C)(C)OC(=O)CNC(=O)c1ccc(C[S+]([O-])c2ccc(Cl)cc2NS(=O)(=O)c2ccc(Cl)c(C(F)(F)F)c2)cc1` (stereo not shown) [tert-butyl ({[4-({[4-chloro-2-({[4-chloro-3-(trifluoromethyl)phenyl]sulfonyl}amino)phenyl]sulfinyl}methyl)phenyl]carbonyl}amino)acetate], the “CCR2 % ANTAGONISM” value amounted to 93%.
Turning to `CC(C)(C)OC(=O)CNC(=O)c1ccc(CS(=O)(=O)c2ccc(Cl)cc2NS(=O)(=O)c2ccc(Cl)c(C(F)(F)F)c2)cc1` [tert-butyl ({[4-({[4-chloro-2-({[4-chloro-3-(trifluoromethyl)phenyl]sulfonyl}amino)phenyl]sulfonyl}methyl)phenyl]carbonyl}amino)acetate], the “CCR2 % ANTAGONISM” value is recorded as 77% and the IC50 worked out at 2.66 µM.

These data come from patent US8822530B2, “Sulfur derivatives as chemokine receptor modulators” (Allergan, Inc., priority 2010, dated 2014).
